Assay results as given in patent US11447466B2, “Substituted indole compounds useful as inhibitors of TLR7/8/9” (BRISTOL-MYERS SQUIBB COMPANY, priority 2017, dated 2022).

Experiments:
Assay type in all cases: cell-based
human TLR9 = molecular target: T1, human TLR9 (Homo sapiens, UniProt Q9NR96); assay: TLR9 inhibition reporter assay (HEK-Blue SEAP reporter, ODN2006 stimulation); details: HEK-Blue cells overexpressing human TLR9, SEAP reporter, ODN2006 5 nM, 22 hour incubation
T1 construct: host or cells: HEK-Blue cells
T1 sequence (Q9NR96 26-1032): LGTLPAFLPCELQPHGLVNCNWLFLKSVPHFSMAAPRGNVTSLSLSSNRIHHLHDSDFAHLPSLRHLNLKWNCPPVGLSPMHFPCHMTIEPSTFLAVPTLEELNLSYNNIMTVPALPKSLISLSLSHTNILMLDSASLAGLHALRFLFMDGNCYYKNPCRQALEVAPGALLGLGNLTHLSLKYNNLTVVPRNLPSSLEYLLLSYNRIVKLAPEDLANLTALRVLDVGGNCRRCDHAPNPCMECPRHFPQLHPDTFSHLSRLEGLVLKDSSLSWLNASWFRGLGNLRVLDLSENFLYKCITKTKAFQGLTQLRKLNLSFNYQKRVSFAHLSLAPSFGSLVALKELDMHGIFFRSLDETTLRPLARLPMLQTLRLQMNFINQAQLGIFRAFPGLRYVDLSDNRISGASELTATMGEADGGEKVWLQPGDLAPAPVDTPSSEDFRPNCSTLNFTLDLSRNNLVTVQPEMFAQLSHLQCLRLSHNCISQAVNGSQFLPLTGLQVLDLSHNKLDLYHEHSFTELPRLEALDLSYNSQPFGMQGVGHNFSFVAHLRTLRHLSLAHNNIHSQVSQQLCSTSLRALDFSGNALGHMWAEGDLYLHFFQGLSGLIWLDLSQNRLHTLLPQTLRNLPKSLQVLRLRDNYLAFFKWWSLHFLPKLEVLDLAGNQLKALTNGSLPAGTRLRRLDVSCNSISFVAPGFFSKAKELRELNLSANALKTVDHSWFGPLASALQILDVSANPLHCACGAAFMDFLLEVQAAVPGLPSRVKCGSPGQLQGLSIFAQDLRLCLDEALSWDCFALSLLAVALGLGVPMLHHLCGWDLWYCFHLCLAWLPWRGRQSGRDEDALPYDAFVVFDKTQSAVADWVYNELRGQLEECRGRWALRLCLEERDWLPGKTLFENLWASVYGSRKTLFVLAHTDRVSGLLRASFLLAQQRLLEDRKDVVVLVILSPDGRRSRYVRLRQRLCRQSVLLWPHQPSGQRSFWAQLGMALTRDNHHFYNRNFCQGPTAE
Method in brief: (§1)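 Screening used HEK-Blue cells overexpressing one human TLR (7, 8 or 9) and an IFN-β minimal promoter–NF-κB/AP-1 SEAP construct. Stimulation lasted 22 h at 37 °C with receptor-specific agonist: gardiquimod, R848 or ODN2006 at 7.5 μM, 15.9 μM and 5 nM.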

human TLR7 = molecular target: T2, human TLR7 (Homo sapiens, UniProt Q9NYK1); assay: TLR7 inhibition reporter assay (HEK-Blue SEAP reporter, gardiquimod stimulation); details: HEK-Blue cells overexpressing human TLR7, SEAP reporter, gardiquimod 7.5 μM, 22 hour incubation
T2 construct: host or cells: HEK-Blue cells
T2 sequence (Q9NYK1 27-1049): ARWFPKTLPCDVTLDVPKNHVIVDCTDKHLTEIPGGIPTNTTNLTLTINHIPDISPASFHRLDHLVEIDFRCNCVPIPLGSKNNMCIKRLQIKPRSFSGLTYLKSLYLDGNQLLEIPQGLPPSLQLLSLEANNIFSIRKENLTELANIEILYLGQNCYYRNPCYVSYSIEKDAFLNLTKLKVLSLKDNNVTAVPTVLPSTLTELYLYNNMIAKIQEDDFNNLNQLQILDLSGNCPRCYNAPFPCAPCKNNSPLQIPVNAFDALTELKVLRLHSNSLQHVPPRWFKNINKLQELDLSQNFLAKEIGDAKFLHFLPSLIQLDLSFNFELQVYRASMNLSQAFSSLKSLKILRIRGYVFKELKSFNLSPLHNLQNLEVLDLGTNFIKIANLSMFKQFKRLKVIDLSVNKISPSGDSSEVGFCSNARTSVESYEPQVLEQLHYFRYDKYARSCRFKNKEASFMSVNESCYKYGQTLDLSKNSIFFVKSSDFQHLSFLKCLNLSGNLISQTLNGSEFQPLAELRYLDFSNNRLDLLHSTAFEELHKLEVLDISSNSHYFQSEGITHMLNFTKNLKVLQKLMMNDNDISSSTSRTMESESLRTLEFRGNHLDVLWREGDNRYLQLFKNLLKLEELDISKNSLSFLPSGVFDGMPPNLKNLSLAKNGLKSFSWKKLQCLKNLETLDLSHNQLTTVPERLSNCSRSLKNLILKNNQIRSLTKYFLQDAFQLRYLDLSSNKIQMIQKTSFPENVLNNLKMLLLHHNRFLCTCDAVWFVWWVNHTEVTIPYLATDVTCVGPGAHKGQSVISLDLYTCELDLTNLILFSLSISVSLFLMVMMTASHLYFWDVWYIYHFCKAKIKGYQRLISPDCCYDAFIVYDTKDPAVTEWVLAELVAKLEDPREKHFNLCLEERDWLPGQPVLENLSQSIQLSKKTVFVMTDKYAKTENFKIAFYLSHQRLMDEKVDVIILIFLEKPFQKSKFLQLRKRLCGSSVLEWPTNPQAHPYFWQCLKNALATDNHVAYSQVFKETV
Method in brief: as §1

human TLR8 = molecular target: T3, human TLR8 (Homo sapiens, UniProt Q9NR97); assay: TLR8 inhibition reporter assay (HEK-Blue SEAP reporter, R848 stimulation); details: HEK-Blue cells overexpressing human TLR8, SEAP reporter, R848 15.9 μM, 22 hour incubation
T3 construct: host or cells: HEK-Blue cells
T3 sequence (Q9NR97 27-1041): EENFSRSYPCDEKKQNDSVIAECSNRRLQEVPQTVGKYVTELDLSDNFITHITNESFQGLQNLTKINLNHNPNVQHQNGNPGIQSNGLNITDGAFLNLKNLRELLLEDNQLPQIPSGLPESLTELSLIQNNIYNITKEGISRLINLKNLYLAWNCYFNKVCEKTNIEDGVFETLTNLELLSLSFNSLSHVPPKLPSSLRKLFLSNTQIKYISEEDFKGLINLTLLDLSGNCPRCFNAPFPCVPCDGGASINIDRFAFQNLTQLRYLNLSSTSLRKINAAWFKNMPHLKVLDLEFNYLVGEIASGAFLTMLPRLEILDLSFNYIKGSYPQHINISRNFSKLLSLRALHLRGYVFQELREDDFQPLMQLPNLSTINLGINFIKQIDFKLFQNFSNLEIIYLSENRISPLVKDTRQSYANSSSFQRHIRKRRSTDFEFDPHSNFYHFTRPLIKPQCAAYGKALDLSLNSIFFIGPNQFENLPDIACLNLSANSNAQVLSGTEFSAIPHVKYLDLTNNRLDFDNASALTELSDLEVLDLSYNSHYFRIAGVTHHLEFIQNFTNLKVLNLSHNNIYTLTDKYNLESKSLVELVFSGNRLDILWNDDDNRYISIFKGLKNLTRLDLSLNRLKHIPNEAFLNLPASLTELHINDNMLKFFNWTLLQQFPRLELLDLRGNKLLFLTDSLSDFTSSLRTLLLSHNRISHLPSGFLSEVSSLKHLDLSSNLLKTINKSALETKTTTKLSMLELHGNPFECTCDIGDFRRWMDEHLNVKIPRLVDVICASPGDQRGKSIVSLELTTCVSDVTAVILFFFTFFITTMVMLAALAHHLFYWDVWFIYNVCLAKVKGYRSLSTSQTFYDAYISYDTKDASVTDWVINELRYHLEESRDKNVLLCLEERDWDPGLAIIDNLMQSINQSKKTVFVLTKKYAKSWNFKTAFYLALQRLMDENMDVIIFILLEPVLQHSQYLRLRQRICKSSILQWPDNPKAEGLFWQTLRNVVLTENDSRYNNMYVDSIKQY
Method in brief: as §1

Row | IC50 (human TLR9) [nM] | IC50 (human TLR7) [nM] | IC50 (human TLR8) [nM] | SMILES
1 | 11000 | 2.8 | 5.1 | Cc1cc(-c2[nH]c3ccc(C4CCN(CC(=O)N(C)C)CC4)cc3c2C(C)C)cn(C)c1=O [Example 71, 2-(4-(2-(1,5-dimethyl-6-oxo-1,6-dihydropyridin-3-yl)-3-isopropyl-1H-indol-5-yl)piperidin-1-yl)-N,N-dimethylacetamide]
2 | 2700 | 13.1 | 3.5 | CC(C)c1c(-c2cc(-c3cncnc3)c(=O)n(C)c2)[nH]c2ccc(C3CCN(CCCC(F)(F)F)CC3)cc12 [Example 104, 5-(3-isopropyl-5-(1-(4,4,4-trifluorobutyl)piperidin-4-yl)-1H-indol-2-yl)-1-methyl-3-(pyrimidin-5-yl)pyridin-2(1H)-one]
3 | 832 | 4.5 | 1.1 | CCCN1CCC(c2ccc3[nH]c(-c4cc(-c5cncnc5)c(=O)n(C)c4)c(C(C)C)c3c2F)CC1 [Example 258, 5-(4-fluoro-3-isopropyl-5-(1-propylpiperidin-4-yl)-1H-indol-2-yl)-1-methyl-3-(pyrimidin-5-yl)pyridin-2(1H)-one]
4 | 526 | 14.1 | 11.1 | Cc1cc(-c2[nH]c3ccc(C4CCN(C5CCCOC5)CC4)cc3c2C(C)C)nn(C)c1=O (stereo not drawn) [Example 188, 6-(3-isopropyl-5-(1-(tetrahydro-2H-pyran-3-yl)piperidin-4-yl)-1H-indol-2-yl)-2,4-dimethylpyridazin-3(2H)-one]
5 | 15600 | 9.3 | 21 | COCc1cc(-c2[nH]c3ccc(C4CCN(C(=O)CN(C)C)CC4)cc3c2C(C)C)cn(C)c1=O [Example 277, 5-(5-(1-(dimethylglycyl)piperidin-4-yl)-3-isopropyl-1H-indol-2-yl)-3-(methoxymethyl)-1-methylpyridin-2(1H)-one]
6 | ≥ 50000 | 42.6 | 42.5 | Cc1cc(-c2[nH]c3ccc(C4CCN(C(=O)CN5CCCC5=O)CC4)cc3c2C(C)C)cn(C)c1=O [Example 300, 5-(3-isopropyl-5-(1-(2-(2-oxopyrrolidin-1-yl)acetyl)piperidin-4-yl)-1H-indol-2-yl)-1,3-dimethylpyridin-2(1H)-one]
7 | 23200 | 16 | 27.3 | Cc1cc(-c2[nH]c3ccc(C4CCN(C5CC(C)OC5=O)CC4)cc3c2C(C)C)cn(C)c1=O (stereo not drawn) [Example 149, 5-(3-isopropyl-5-(1-(5-methyl-2-oxotetrahydrofuran-3-yl)piperidin-4-yl)-1H-indol-2-yl)-1,3-dimethylpyridin-2(1H)-one]
8 | 30000 | 5.6 | 16.9 | Cc1c(-c2[nH]c3ccc(C4CCN(C5COC5)CC4)cc3c2C(C)C)cn(C)c(=O)c1Cl [Example 248, 3-chloro-5-(3-isopropyl-5-(1-(oxetan-3-yl)piperidin-4-yl)-1H-indol-2-yl)-1,4-dimethylpyridin-2(1H)-one]
9 | 16600 | 10.2 | 19.7 | COCCn1cc(-c2[nH]c3ccc(C4CCN(CC(=O)N(C)C)CC4)cc3c2C(C)C)cc(C)c1=O [Example 159, 2-(4-(3-isopropyl-2-(1-(2-methoxyethyl)-5-methyl-6-oxo-1,6-dihydropyridin-3-yl)-1H-indol-5-yl)piperidin-1-yl)-N,N-dimethylacetamide]
10 | 2390 | 8.4 | 10.1 | Cc1cc(-c2[nH]c3ccc(C4CCNCC4)cc3c2C(C)C)cn(CCO)c1=O [Example 30, 1-(2-hydroxyethyl)-5-(3-isopropyl-5-(piperidin-4-yl)-1H-indol-2-yl)-3-methylpyridin-2(1H)-one]
11 | 922 | 16.1 | 12.6 | Cc1c(-c2[nH]c3ccc(C4CCNCC4)cc3c2C(C)C)cc(Cl)c(=O)n1C [Example 33, 3-chloro-5-(3-isopropyl-5-(piperidin-4-yl)-1H-indol-2-yl)-1,6-dimethylpyridin-2(1H)-one]
